Legend:
homogentisic acid (HGA) [1] = experiment: Serum HGA (s-HGA) 24-hour profile, dose-response study in patients with AKU; assay type: in vivo, human; details: for Patients with no quantifiable serum HGA concentration in any sample over the 24-hour dosage interval: group of 8 patients, LLOQ 3.1 μmol/L
Procedure: A randomized, open-label, parallel-group dose-response study with a no-treatment control group was performed. Patients with AKU were randomized to receive either 1 mg, 2 mg, 4 mg or 8 mg nitisinone once daily (oral administration) or no treatment (control). Forty patients were randomized, equally distributed amongst the five groups (8 patients per group). Nitisinone was administered as an oral suspension containing 4 mg/mL. The following dose volumes were administered once daily, in the morning: Measurements of serum HGA (s-HGA) and tyrosine (s-Tyr) concentrations were performed at weeks 0, 2 and 4. At all visits a full 24-hour profile was determined at the following time-points: pre-dose (immediately after breakfast) and 0.5, 1,2, 3, 4, 6, 8, 10, 12, 15, 18,24 hours post-dose. The concentrations of HGA and tyrosine in the serum were measured by liquid chromatography tandem mass spectrometry (LCMSMS). The lower limit of quantification (LLOQ) for HGA was 3.1 μmol/L. Maximum and daily average serum concentrations of HGA and tyrosine were determined. The daily average concentrations were determined by dividing the area under the concentration vs. time curves, calculated by means of the trapezoidal rule, by 24.

homogentisic acid (HGA) [2] = details: 2 mg/day, 36 months, AKU patients; cited from earlier work
tyrosine = details: 2 mg daily, 20 patients, no diet restrictions, 3-year study; cited from earlier work
patients with HT-1 = details: cited from earlier work
homogentisic acid (HGA) [3] = experiment: Urinary excretion of HGA over 24 hours (u-HGA24), dose-response study in patients with AKU; assay type: in vivo, human; details: for Relative decrease in u-HGA24, max / Relative decrease in u-HGA24, mean / Relative decrease in u-HGA24, median / Relative decrease in u-HGA24, min: baseline to week 4, N = 8
Procedure: A randomized, open-label, parallel-group dose-response study with a no-treatment control group was performed. Patients with AKU were randomized to receive either 1 mg, 2 mg, 4 mg or 8 mg nitisinone once daily (oral administration) or no treatment (control). Forty patients were randomized, equally distributed amongst the five groups (8 patients per group). Nitisinone was administered as an oral suspension containing 4 mg/mL. The following dose volumes were administered once daily, in the morning: Urinary excretion of HGA over a 24-hour period (u-HGA24) was assessed at weeks 0, 2 and 4. Urine was collected into 2.5-L bottles containing 30 mL of 5N H2SO4. The exact length of the collection interval and the volume of the collected urine were recorded. The concentration of HGA in the urine was measured by liquid chromatography tandem mass spectrometry (LCMSMS). The 24-hour excretion of HGA was calculated by multiplying the concentration with the volume of the collected urine, and correcting for any deviation from a 24-hour collection period. (There were no reports of missed samples within the collection interval.)

patients with AKU = details: 2 mg/day, 36 months; cited from earlier work
[4] = 1 mg once daily oral, Week 0 (baseline), N = 8
[5] = 1 mg once daily oral, Week 4, N = 8
[6] = 2 mg once daily oral, Week 0 (baseline), N = 8
[7] = 2 mg once daily oral, Week 4, N = 8
[8] = 4 mg once daily oral, Week 0 (baseline), N = 8
[9] = 4 mg once daily oral, Week 4, N = 8
[10] = 8 mg once daily oral, Week 0 (baseline), N = 8
[11] = 8 mg once daily oral, Week 4, N = 8

O=C1CCCC(=O)C1C(=O)c1ccc(C(F)(F)F)cc1[N+](=O)[O-] [nitisinone, 2-[2-nitro-4-(trifluoromethyl)benzoyl]-1,3-cyclohexanedione]
Daily average serum concentration of HGA, max (homogentisic acid (HGA) [1]; [4]): 44.1 µmol/L | Daily average serum concentration of HGA, mean (homogentisic acid (HGA) [1]; [4]): 34.2 µmol/L | Daily average serum concentration of HGA, median (homogentisic acid (HGA) [1]; [4]): 33.0 µmol/L | Daily average serum concentration of HGA, min (homogentisic acid (HGA) [1]; [4]): 25.5 µmol/L | Daily average serum concentration of HGA, max (homogentisic acid (HGA) [1]; [5]): 7.3 µmol/L | Daily average serum concentration of HGA, mean (homogentisic acid (HGA) [1]; [5]): 4.1 µmol/L | Daily average serum concentration of HGA, median (homogentisic acid (HGA) [1]; [5]): 3.9 µmol/L | Daily average serum concentration of HGA, min (homogentisic acid (HGA) [1]; [5]): 3.1 µmol/L | Daily average serum concentration of HGA, max (homogentisic acid (HGA) [1]; [6]): 59.1 µmol/L | Daily average serum concentration of HGA, mean (homogentisic acid (HGA) [1]; [6]): 36.6 µmol/L | Daily average serum concentration of HGA, median (homogentisic acid (HGA) [1]; [6]): 34.2 µmol/L | Daily average serum concentration of HGA, min (homogentisic acid (HGA) [1]; [6]): 25.1 µmol/L | Daily average serum concentration of HGA, max (homogentisic acid (HGA) [1]; [7]): 5.8 µmol/L | Daily average serum concentration of HGA, median (homogentisic acid (HGA) [1]; [7]): <3.1 µmol/L | Daily average serum concentration of HGA, min (homogentisic acid (HGA) [1]; [7]): <3.1 µmol/L | Patients with no quantifiable serum HGA concentration in any sample over the 24-hour dosage interval (homogentisic acid (HGA) [1]; 2 mg): 3 | Daily average serum concentration of HGA, max (homogentisic acid (HGA) [1]; [8]): 49.9 µmol/L | Daily average serum concentration of HGA, mean (homogentisic acid (HGA) [1]; [8]): 38.5 µmol/L | Daily average serum concentration of HGA, median (homogentisic acid (HGA) [1]; [8]): 37.7 µmol/L | Daily average serum concentration of HGA, min (homogentisic acid (HGA) [1]; [8]): 28.9 µmol/L | Daily average serum concentration of HGA, max (homogentisic acid (HGA) [1]; [9]): <3.1 µmol/L | Daily average serum concentration of HGA, median (homogentisic acid (HGA) [1]; [9]): <3.1 µmol/L | Daily average serum concentration of HGA, min (homogentisic acid (HGA) [1]; [9]): <3.1 µmol/L | Patients with no quantifiable serum HGA concentration in any sample over the 24-hour dosage interval (homogentisic acid (HGA) [1]; 4 mg): 4 | Daily average serum concentration of HGA, max (homogentisic acid (HGA) [1]; [10]): 47.7 µmol/L | Daily average serum concentration of HGA, mean (homogentisic acid (HGA) [1]; [10]): 36.6 µmol/L | Daily average serum concentration of HGA, median (homogentisic acid (HGA) [1]; [10]): 38.6 µmol/L | Daily average serum concentration of HGA, min (homogentisic acid (HGA) [1]; [10]): 25.2 µmol/L | Daily average serum concentration of HGA, median (homogentisic acid (HGA) [1]; [11]): <3.1 µmol/L | Daily average serum concentration of HGA, min (homogentisic acid (HGA) [1]; [11]): <3.1 µmol/L | Patients with no quantifiable serum HGA concentration in any sample over the 24-hour dosage interval (homogentisic acid (HGA) [1]; 8 mg): 7 | Reduction of urinary excretion on average, compared to pre-treatment levels (homogentisic acid (HGA) [2]): about 95% | Tyrosine levels, average (tyrosine): 800 µM | Tyrosine levels, range (tyrosine): 332 to 1528 µM | IQ of treated children versus unaffected siblings (patients with HT-1; children treated with nitisinone (Bendadi et al.)): considerably lower | Cognitive impairment causing schooling difficulties, patients affected (patients with HT-1; school-age patients with HT-1 treated with nitisinone (Masurel-Paulet et al.)): eight out of 23 | u-HGA24, max (homogentisic acid (HGA) [3]; [4]): 69502.9 μmol/24h | u-HGA24, mean (homogentisic acid (HGA) [3]; [4]): 36757.0 μmol/24h | u-HGA24, median (homogentisic acid (HGA) [3]; [4]): 34034.4 μmol/24h | u-HGA24, min (homogentisic acid (HGA) [3]; [4]): 20743.4 μmol/24h | u-HGA24, max (homogentisic acid (HGA) [3]; [5]): 6752.8 μmol/24h | u-HGA24, mean (homogentisic acid (HGA) [3]; [5]): 3931.0 μmol/24h | u-HGA24, median (homogentisic acid (HGA) [3]; [5]): 3415.6 μmol/24h | u-HGA24, min (homogentisic acid (HGA) [3]; [5]): 1847.6 μmol/24h | Relative decrease in u-HGA24, max (homogentisic acid (HGA) [3]; 1 mg once daily oral): 91.05% | Relative decrease in u-HGA24, mean (homogentisic acid (HGA) [3]; 1 mg once daily oral): 88.72% | Relative decrease in u-HGA24, median (homogentisic acid (HGA) [3]; 1 mg once daily oral): 87.99% | u-HGA24, max (homogentisic acid (HGA) [3]; [6]): 40747.2 μmol/24h | u-HGA24, mean (homogentisic acid (HGA) [3]; [6]): 31439.8 μmol/24h | u-HGA24, median (homogentisic acid (HGA) [3]; [6]): 31754.7 μmol/24h | u-HGA24, min (homogentisic acid (HGA) [3]; [6]): 19994.2 μmol/24h | u-HGA24, max (homogentisic acid (HGA) [3]; [7]): 3484.1 μmol/24h | u-HGA24, mean (homogentisic acid (HGA) [3]; [7]): 1602.5 μmol/24h | u-HGA24, median (homogentisic acid (HGA) [3]; [7]): 1515.6 μmol/24h | u-HGA24, min (homogentisic acid (HGA) [3]; [7]): 627.0 μmol/24h | Relative decrease in u-HGA24, max (homogentisic acid (HGA) [3]; 2 mg once daily oral): 96.86% | Relative decrease in u-HGA24, mean (homogentisic acid (HGA) [3]; 2 mg once daily oral): 94.78% | Relative decrease in u-HGA24, median (homogentisic acid (HGA) [3]; 2 mg once daily oral): 95.64% | Relative decrease in u-HGA24, min (homogentisic acid (HGA) [3]; 2 mg once daily oral): 89.08% | u-HGA24 (homogentisic acid (HGA) [3]; 2 mg or higher per day, with one exception): less than 2000 μmol | u-HGA24, max (homogentisic acid (HGA) [3]; [8]): 55393.9 μmol/24h | u-HGA24, mean (homogentisic acid (HGA) [3]; [8]): 35453.4 μmol/24h | u-HGA24, median (homogentisic acid (HGA) [3]; [8]): 31502.7 μmol/24h | u-HGA24, min (homogentisic acid (HGA) [3]; [8]): 14442.9 μmol/24h | u-HGA24, max (homogentisic acid (HGA) [3]; [9]): 1478.4 μmol/24h | u-HGA24, mean (homogentisic acid (HGA) [3]; [9]): 733.8 μmol/24h | u-HGA24, median (homogentisic acid (HGA) [3]; [9]): 790.5 μmol/24h | u-HGA24, min (homogentisic acid (HGA) [3]; [9]): 164.2 μmol/24h | Relative decrease in u-HGA24, max (homogentisic acid (HGA) [3]; 4 mg once daily oral): 99.41% | Relative decrease in u-HGA24, mean (homogentisic acid (HGA) [3]; 4 mg once daily oral): 98.15% | Relative decrease in u-HGA24, median (homogentisic acid (HGA) [3]; 4 mg once daily oral): 98.19% | Relative decrease in u-HGA24, min (homogentisic acid (HGA) [3]; 4 mg once daily oral): 96.74% | u-HGA24, max (homogentisic acid (HGA) [3]; [10]): 32896.6 μmol/24h | u-HGA24, mean (homogentisic acid (HGA) [3]; [10]): 27353.5 μmol/24h | u-HGA24, median (homogentisic acid (HGA) [3]; [10]): 28728.7 μmol/24h | u-HGA24, min (homogentisic acid (HGA) [3]; [10]): 17075.1 μmol/24h | u-HGA24, max (homogentisic acid (HGA) [3]; [11]): 223.0 μmol/24h | u-HGA24, mean (homogentisic acid (HGA) [3]; [11]): 146.3 μmol/24h | u-HGA24, median (homogentisic acid (HGA) [3]; [11]): 140.4 μmol/24h | u-HGA24, min (homogentisic acid (HGA) [3]; [11]): 83.1 μmol/24h | Relative decrease in u-HGA24, max (homogentisic acid (HGA) [3]; 8 mg once daily oral): 99.70% | Relative decrease in u-HGA24, mean (homogentisic acid (HGA) [3]; 8 mg once daily oral): 99.41% | Relative decrease in u-HGA24, median (homogentisic acid (HGA) [3]; 8 mg once daily oral): 99.52% | Relative decrease in u-HGA24, min (homogentisic acid (HGA) [3]; 8 mg once daily oral): 98.69% | Decrease of urinary excretion of HGA (up to) (homogentisic acid (HGA) [3]; 8 mg per day (highest dose)): > 99% | Suppression of the formation of HGA, estimated (homogentisic acid (HGA) [3]; 10 mg per day, estimated): almost completely | Decrease of u-HGA in a majority of patients, estimated by extrapolation (homogentisic acid (HGA) [3]; 15 mg per day, extrapolation): about 99.9% | Suppression of the formation of HGA (homogentisic acid (HGA) [3]; considerably higher doses than previously used in alkaptonuria): more than 99% | u-HGA24 of one patient (homogentisic acid (HGA) [3]; one patient on 2 mg, week 4): 3484 µmol | Effect on primary efficacy variable, hip rotation (patients with AKU): failed to show an effect
